SMILES strings stand for the structures. Active and inactive are the calls of the source. How the calls were made is not given here.

The subject of this test is M. tuberculosis H37Rv growth inhibition with meropenem. The experiment in a line: dose response, H37Rv, with and without meropenem (AID 434987).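 Further: growth over 7 days at 37 °C before Alamar Blue read on day 9.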
The mark [1] stands for this setting: M. tuberculosis H37Rv growth inhibition, measured here: IC50 without meropenem.
The mark [2] stands for this setting: M. tuberculosis H37Rv growth inhibition, measured here: IC90 without meropenem.
[3] abbreviates: measured here: IC90 with meropenem.

In general, IC50 refers to the concentration needed to halve the response being measured. One may read the IC90 as the point of the concentration-response curve where the effect stands at 90%. Low readings indicate greater potency, high ones weaker potency. In the case of `CCC(CC)c1nnc(NC(=O)c2cc(-c3ccccc3)nc3ccccc23)s1`, the IC50 was > 100 µM (inactive). Under setting [1], this molecule displayed a concentration for half-maximal inhibition (IC50) greater than 100 µM. The IC90 under setting [2] is greater than 100 µM. Besides, the IC90 under setting [3] was greater than 100 µM.
As for `CN(C)c1ccc(/C=C/c2nc3ccccc3s2)cc1`, the IC50 is 8.97 µM. The molecule further gave an IC50 under setting [1] greater than 100 µM. The concentration for an effect of 90% (IC90) under setting [2] is greater than 100 µM. The IC90 under setting [3] is greater than 100 µM.
For the molecule `Clc1ccc(Cn2cc(/C=N/n3cnnc3)c3ccccc32)cc1`, the IC50 was 46.9 µM (inactive). Moreover, the IC50 under setting [1] is 49 µM. Under setting [2], the IC90 is greater than 50 µM. The same molecule had a 90% effect concentration (IC90) under setting [3] greater than 100 µM.
On the same counts, the results for `Cn1c(/C=C/c2ccc(Cl)cc2)c([N+](=O)[O-])c(=O)n(C)c1=O` are > 100 µM (inactive), greater than 100 µM, greater than 100 µM and greater than 100 µM.
For `CC(O)/C=C/c1ccc2ccccc2n1` (stereo unspecified), in that order: 27.7 µM (inactive), 53.9 µM, greater than 100 µM and 57.5 µM.
For `Cc1ccc(C(=O)OCCN2CCN(c3ncc(C(F)(F)F)cc3Cl)CC2)cc1`, in that order: > 100 µM (inactive), greater than 100 µM, greater than 100 µM and greater than 100 µM.
Take `C/C(=N\NC(=O)c1cc2c(s1)CCC(C)C2)c1ccc[nH]1` (stereo unspecified): the IC50 was 6.51 µM. Under setting [1], the IC50 is greater than 100 µM. Besides, under setting [2], the IC90 was greater than 100 µM. For the same molecule, the IC90 under setting [3] is greater than 100 µM.
Turning to `Cn1nnnc1Sc1ncnc2scc(-c3ccc(C(F)(F)F)cc3)c12`, the IC50 is 6.75 µM (inactive). Under setting [1], this molecule showed an IC50 of 14.3 µM. Moreover, the IC90 under setting [2] came to 24.4 µM. The molecule further yielded an IC90 under setting [3] of 15 µM.
For `COc1ccc(Cl)cc1NC(=O)CN(C)C(=O)c1ccc(N2CCCCCC2)c([N+](=O)[O-])c1`, in that order: > 100 µM (inactive), greater than 100 µM, greater than 100 µM and greater than 100 µM.
On the same counts, the results for `CN(C)CCCN(C(=O)/C=C/c1cccs1)c1nc2ccc(F)cc2s1` are 45.2 µM (inactive), 45.8 µM, 49.2 µM and 48.4 µM.
For `O=[N+]([O-])c1cc(Cl)cc(/C=N/NC(=S)Nc2cc(S(=O)(=O)N3CCOCC3)ccc2Cl)c1O`, in that order: 6.3 µM, 18.2 µM, 30.5 µM and 29.3 µM.
Turning to `CCC(CC)NC(=O)CON=C1c2ccccc2-c2ccccc21`, the IC50 was > 100 µM (inactive). Besides, the IC50 under setting [1] is greater than 100 µM. Under setting [2], this molecule yielded an IC90 greater than 100 µM. Further, under setting [3], the IC90 is greater than 100 µM.
For the molecule `O=C(Cc1ccccc1Cl)Nc1nc2ccccc2[nH]1`, the IC50 was 9.31 µM. Moreover, the IC50 under setting [1] was greater than 100 µM. In addition, the IC90 under setting [2] is greater than 100 µM. Moreover, under setting [3], the IC90 was greater than 25 µM.
For `COc1cc(C(=O)Oc2ccccc2/C=N/NC(=O)c2ccc(C)c(Cl)c2)cc(OC)c1OC`, the IC50 was 1.96 µM. Moreover, under setting [1], the IC50 was greater than 100 µM. Under setting [2], this molecule displayed an IC90 greater than 100 µM. Further, the IC90 under setting [3] is greater than 3.13 µM.
Consider `COC(=O)c1ccc(/C=N/Nc2nc(-c3ccc(C)cc3)cs2)cc1`, for which the IC50 was 10.9 µM. For the same molecule, the IC50 under setting [1] was greater than 100 µM. Moreover, the IC90 under setting [2] was greater than 100 µM. Under setting [3], this molecule returned an IC90 greater than 100 µM.
On to `Cc1ccc(NC(=O)CSc2nnc([C@@H]3CCCN3C(=O)OC(C)(C)C)o2)c(C)c1`, for which the IC50 is 78.5 µM (inactive). Further, under setting [1], the IC50 turned out to be 86.5 µM. Under setting [2], this molecule registered an IC90 greater than 100 µM. Under setting [3], the IC90 was greater than 100 µM.
Take `C=CCn1c(SCc2ccc(C(=O)Nc3nccs3)cc2)nnc1-c1ccc(C)c(Cl)c1`: the IC50 was 95.3 µM (inactive). For the same molecule, the IC50 under setting [1] is greater than 100 µM. Under setting [2], the IC90 is greater than 100 µM. Under setting [3], the IC90 was greater than 100 µM.
`CCOc1cc(/C=N/Nc2nc(-c3cccs3)c(NC(C)=O)s2)ccc1O`: the IC50 is 42.4 µM (inactive). Under setting [1], this molecule returned an IC50 greater than 100 µM. Also, the IC90 under setting [2] was greater than 100 µM. The molecule also came in with an IC90 under setting [3] greater than 100 µM.
As for `COCCSc1nc2sc3c(c2c(=O)n1-c1ccccc1)CCN(C)C3`, the IC50 is 38.1 µM (inactive). The IC50 under setting [1] was 41.9 µM. The molecule further displayed an IC90 under setting [2] of 54.3 µM. In addition, under setting [3], the IC90 was 53.3 µM.
For `S=C(NNc1ccc2ccccc2c1)NC1CCCCC1`, in that order: 8.86 µM (inactive), 20.4 µM, 46.7 µM and 41.3 µM.
On the same counts, the results for `C=C1C(=O)O[C@@H]2[C@H]1[C@@H](OC(=O)/C(C)=C/C)C/C(C)=C\C(=O)/C=C(\C)[C@@H]2O` are 1.24 µM, 18.6 µM, 29 µM and 25.2 µM.
For `COC(=O)C1=C(C)NC(=O)/C1=C\c1cc(C)n(-c2c(C)cccc2C)c1C`, in that order: 88 µM (inactive), greater than 100 µM, greater than 100 µM and 99.8 µM.
As for `O=C(Nc1ccc(N2CCCCC2)cc1)c1cc([N+](=O)[O-])cc([N+](=O)[O-])c1`, the IC50 is 43.9 µM (inactive). This molecule registered an IC50 under setting [1] greater than 100 µM. In addition, under setting [2], the IC90 is greater than 100 µM. In addition, under setting [3], the IC90 is greater than 100 µM.
Regarding `CCOc1ccc(-c2nc(-c3ccccc3C)no2)cc1`, the IC50 was > 100 µM (inactive). Moreover, the IC50 under setting [1] was greater than 100 µM. For the same molecule, the IC90 under setting [2] is greater than 100 µM. This molecule returned an IC90 under setting [3] greater than 100 µM.
As for `COc1ccccc1CNC(=O)COC(=O)C1=COCCO1`, the IC50 was 18.5 µM. Moreover, under setting [1], the IC50 stood at 67.9 µM. Further, under setting [2], the IC90 was greater than 100 µM. For the same molecule, the IC90 under setting [3] was greater than 100 µM.
As to `CCC(=O)NC(=S)Nc1ccc(-c2nc3ccccc3s2)cc1`, the IC50 is > 100 µM (inactive). The molecule further came in with an IC50 under setting [1] greater than 100 µM. Moreover, the IC90 under setting [2] was greater than 100 µM. Besides, the IC90 under setting [3] was greater than 100 µM.
Turning to `CC1CC1C(=O)Nc1nc(-c2cccs2)c(-c2cccs2)s1` (stereo unspecified), the IC50 was 94.3 µM (inactive). Moreover, the IC50 under setting [1] is greater than 100 µM. This molecule also returned an IC90 under setting [2] greater than 100 µM. Moreover, under setting [3], the IC90 is greater than 100 µM.
`CONC(=O)c1cc(OCC(F)(F)F)ccc1OCC(F)(F)F`: the IC50 was > 100 µM (inactive). Further, under setting [1], the IC50 was greater than 100 µM. The molecule also had an IC90 under setting [2] greater than 100 µM. The molecule also came in with an IC90 under setting [3] greater than 100 µM.
For the molecule `O=C(c1cnn2c(C(F)(F)F)cc(-c3cccs3)nc12)N1CCN(C(c2ccccc2)c2ccccc2)CC1`, the IC50 is 26.6 µM (inactive). For the same molecule, the concentration for half-maximal inhibition (IC50) under setting [1] is 32.5 µM. The molecule also registered an IC90 under setting [2] greater than 100 µM. Also, the IC90 under setting [3] is greater than 100 µM.
Regarding `CC1CCCC(NC(=O)COC(=O)c2cccc(NS(=O)(=O)/C=C/c3ccccc3)c2)C1C` (stereo unspecified), the IC50 is > 100 µM (inactive). This molecule registered a concentration for half-maximal inhibition (IC50) under setting [1] greater than 100 µM. For the same molecule, the IC90 under setting [2] is greater than 100 µM. Also, the IC90 under setting [3] is greater than 100 µM.
Regarding `Cc1ccc(C2=NN3C(=O)c4ccccc4C3C2)cc1` (stereo unspecified), the IC50 was 11.1 µM. Moreover, the IC50 under setting [1] worked out at 49 µM. Under setting [2], this molecule gave a 90% effect concentration (IC90) greater than 100 µM. The IC90 under setting [3] was determined as 35.1 µM.
On the same counts, the results for `O=C(Nc1nnc(-c2ccccc2SCc2ccccc2F)s1)Nc1ccccc1F` are > 100 µM (inactive), greater than 100 µM, greater than 100 µM and greater than 100 µM.
For `NC(=S)N/N=C/c1ccc([N+](=O)[O-])cc1`, in that order: 31.7 µM, greater than 100 µM, greater than 100 µM and greater than 100 µM.
On the same counts, the results for `COc1ccc(/C=N\NC(=O)c2sc(N)nc2C)cc1OC` are > 100 µM (inactive), greater than 100 µM, greater than 100 µM and greater than 100 µM.
Regarding `N#Cc1c(NC(=O)CSc2nc(-c3ccco3)cc(C(F)(F)F)n2)sc2c1CCCC2`, the IC50 was > 100 µM (inactive). Further, under setting [1], the IC50 was greater than 100 µM. Besides, under setting [2], the IC90 was greater than 100 µM. The IC90 under setting [3] was greater than 100 µM.
On to `COc1ccccc1C(=O)Nc1sc2c(c1C(=O)NCc1ccco1)CCCC2`, for which the IC50 was > 100 µM (inactive). The same molecule had an IC50 under setting [1] greater than 100 µM. Under setting [2], this molecule showed an IC90 greater than 100 µM. The concentration for an effect of 90% (IC90) under setting [3] was greater than 100 µM.
On to `CCOC(=O)C(=CNc1ccc2c(c1)c1ccccc1n2CC)C(=O)OCC`, for which the IC50 was 15.2 µM. Also, the IC50 under setting [1] is greater than 100 µM. Under setting [2], this molecule gave an IC90 greater than 100 µM. The 90% effect concentration (IC90) under setting [3] was greater than 25 µM.
Regarding `CN(C)C(=O)c1ccc(-n2nc(C(F)(F)F)c3c2CCCC3)cc1`, the IC50 is > 100 µM (inactive). Besides, the IC50 under setting [1] was greater than 100 µM. The same molecule registered an IC90 under setting [2] greater than 100 µM. The IC90 under setting [3] was greater than 100 µM.
`CCN(CC(=O)Nc1ccc2c(c1)OCCO2)C(=O)c1ccc([N+](=O)[O-])s1`: the IC50 is 23.6 µM (inactive). In addition, the IC50 under setting [1] stood at 26.7 µM. Also, the IC90 under setting [2] stood at 50.7 µM. Under setting [3], this molecule had an IC90 of 26 µM.
On the same counts, the results for `CCC(CC)c1nnc(NC(=O)c2ccc(N3CCCCC3)c([N+](=O)[O-])c2)s1` are 9.31 µM, 75.9 µM, greater than 100 µM and 44 µM.
For `COc1ccc(NC(=O)CCC2CCCC2)cc1OC`, in that order: > 100 µM (inactive), greater than 100 µM, greater than 100 µM and greater than 100 µM.
For `Cc1ccccc1OCC(=O)Nc1ccccc1N1CCCCC1`, in that order: 5.94 µM, 96.4 µM, greater than 100 µM and 13.5 µM.
Regarding `COc1ccc2c(C)nc(Nc3nc(-c4ccccc4)cc(=O)[nH]3)nc2c1`, the IC50 was > 100 µM (inactive). This molecule displayed an IC50 under setting [1] greater than 100 µM. Moreover, the IC90 under setting [2] was greater than 100 µM. The IC90 under setting [3] was greater than 100 µM.
Regarding `COc1ccc(NC(=O)CSc2nncn2C)c([N+](=O)[O-])c1`, the IC50 is 44.5 µM (inactive). The IC50 under setting [1] came to 90.1 µM. The molecule further showed an IC90 under setting [2] greater than 100 µM. The molecule also gave an IC90 under setting [3] greater than 100 µM.

(Values after PubChem BioAssay AID434987 (Southern Research Specialized Biocontainment Screening …, 2010).)
